# From patent US6562868B1, “Method for treatment of female sexual dysfunction” (Synphora AB, priority 1999, dated 2003)
# Legend:
# [1] = system: cat eyes; assay: Irritant effect in cat eyes (behavioural model, degree of eyelid closure); assay type: in vivo; settings: for irritant effect in words, compared to PGE1-isopropyl ester: even at doses 1000 times higher than PGE1-isopropyl ester
# Experimental: (§1) The effect of the test compounds on cavernous tissue was tested using penile tissue. As mentioned previously both in the male and female the genitals contain cavernous tissue, and the penile tissue can therefore be used as model for genital cavernous tissue. The general blood vessel relaxing effect of the test compounds was studied by investigating the immediate blood pressure decrease in rats upon intravenous infusion of the test compounds. The acute drop in blood pressure reflects a peripheral vasodilation in the animals brought about by the test compounds. The general irritative effect of the test compounds was studied in the cat eye which is very sensitive to noxious stimuli.
# The irritant effect of the prostaglandin analogues was tested using a behavioural model in cats. In this model the irritant effect on the eye is studied by registering the degree of eyelid closure and the behaviour of the animals. Compounds that cause discomfort and pain in the eye cause the animals to close their eyes. The analogues were applied as carboxylic acid esters, to enhance bioavailability, topically on the eye as a single dose at different dose levels. The animals were then followed for several hours at regular intervals. Each compound and dose was tested on a group of 3-6 cats. At least 3 days elapsed between two consecutive tests on the same animals. An arbitrary scale from 0 (absence of irritation) to 3 (marked irritation), with half steps was used.
# [2] = system: human corpus cavernosum tissue; assay: Relaxation of isolated human penile cavernous tissue precontracted with norepinephrine, normalized to carbachol; assay type: cell-based; settings: FIG. 1, parallel curves; about half to one third as potent as PGE1
# Experimental: as §1
# Human penile cavernous tissue was obtained fresh from surgery, and representative tissue samples were mounted in smooth muscle tissue baths containing a modified Kreb's solution consisting of NaCl 119 mM, KCl 4.6 mM, MgCl2 1.2 mM, NaH2PO4 1.2 mM, NaHCO3 15 mM, CaCl2 1.5 mM and glucose 11 mM. The solution also contained indomethacin at a final concentration of about 3 μM. The solution was continuously bubbled by 95% O2 and 5% CO2, and the temperature was kept at 37° C. […]
# [3] = system: rabbit penile blood vessels; assay: Vasorelaxation of isolated rabbit penile blood vessel ring segments in a small vessel myograph, normalized to papaverine; assay type: cell-based; settings: FIG. 2; precontracted with 10^−6 M norepinephrine
# Experimental: To study the effect of the PGE1 and […]-OH-PGE2 on the penile vasculature, penile blood vessels of the rabbit were isolated and mounted as ring segments in a small vessel myograph (J.P. Trading, Denmark) containing a solution consisting of NaCl 119 mM, KCl 4.7 mM, CaCl2 1.5 mM, MgSO4 1.17 mM, KH2PO4 1.18 mM, NaHCO3 25 mM, EDTA 0.027 mM and glucose 11 mM. The solution also contained indomethacin at a final concentration of about 3 μM, and was continuously bubbled by 95% O2 and 5%CO2. The temperature was kept constant at 37° C. The vessels were stretched and then precontracted using 10^-6 M norepinephrine, and the vasorelaxant effect of the prostaglandin analogues was normalized by comparing it to that of papaverine in the same preparation. Cumulative concentration-response curves were constructed for the analogues.
# [4] = system: rabbit eye; settings: rabbits; Hall and Jaitly, 1977; cited from earlier work
# [5] = system: cat eye; assay: Intraocular pressure in cats by pneumatonometry after topical administration; assay type: in vivo; settings: 1 hour after topical administration; 3 cats, local anaesthesia; before treatment 16.3+/−0.9 mmHg; control eyes 15.7+/−0.7
# Experimental: To confirm that 19R-OH-PGE2-methyl ester, which is more hydrophilic than PGE1-isopropyl ester, indeed penetrates into the cornea and the intraocular parts of the eye we measured the intraocular pressure in 3 cats under local anaesthesia before and 1 hour after topical administration of the prostaglandin to the eye. The intraocular pressure was measured by pneumatonometry. One eye was treated with the test compound and the other eye received the vehicle only. In the eyes treated topically with 19R-OH-PGE2-methyl ester the intraocular pressure decreased from 16.3+/−0.9 mmHg to 12.7+/−1.2 mmHg, whereas it was 16.3+/−0.9 mmHg and 15.7+/−0.7 mmHg in the control eyes at the same time points. It is well known that prostaglandins reduce the intraocular pressure in cats (Bito et al., 1989), and it can thus be taken as an evidence that the drug has penetrated into the eye. […] Thus the absence of pain and irritation after administration of 18RS-OH-PGE2, 19R-OH-PGE2 and 20-OH-PGE2 cannot be explained en the basis of increased hydrophilicity and poor bioavailability.
smiles,measurement,setting,value
"CCC(O)CC[C@H](O)/C=C/[C@H]1[C@H](O)CC(=O)[C@@H]1C/C=C\CCCC(=O)OC (stereo partly drawn) [18RS-OH—PGE2-me, 18RS-hydroxy PGE2 methyl ester]","irritant effect in words, compared to PGE1-isopropyl ester",[1],no or markedly reduced irritant effect
"C[C@@H](O)CCC[C@H](O)/C=C/[C@H]1[C@H](O)CC(=O)[C@@H]1C/C=C\CCCC(=O)O [19R-OH-PGE2, 19R-hydroxy-prostaglandin E2]",factor by which concentration-response curve differs from PGE1 (less potent),[2],2-3
same,"vasodilatory effect (efficacy and potency, PGE1 versus 19R-OH-PGE2)",[3],the same efficacy in inducing vasodilatation and were also about equipotent
same,irritant effect on ocular structures,[4],inducing swelling of the ocular structures
same,lid closure,[4],does not cause lid closure
same,irritation by swelling of the ocular structures,[1]; cat eye,no evidence of such irritation
"COC(=O)CCC/C=C\C[C@H]1C(=O)C[C@@H](O)[C@@H]1/C=C/[C@@H](O)CCC[C@@H](C)O [19R-OH—PGE2-me, 19-R-hydroxy-prostaglandin E2-methyl ester]","irritant effect in words, compared to PGE1-isopropyl ester",[1],no or markedly reduced irritant effect
same,intraocular pressure,[5],12.7+/−1.2 mmHg
"CCCCC[C@H](O)/C=C/[C@H]1[C@H](O)CC(=O)[C@@H]1CCCCCCC(=O)O [PGE1, reference compound]","vasodilatory effect (efficacy and potency, PGE1 versus 19R-OH-PGE2)",[3],the same efficacy in inducing vasodilatation and were also about equipotent
